In US5310667A (priority 1989, dated 1994):

Legend:
[1] = biological target: T1, pMON8186 encoded petunia EPSP synthase variant (glycine (101) to alanine and glycine (144) to aspartic acid) (Petunia hybrida, UniProt P11043, G173A/G216D); assay: EPSP synthase kinetic constants (appKi glyphosate, appKm PEP); assay type: biochemical
T1 construct: GGT codon for glycine (144) in the mature petunia EPSP synthase; made in house; host or cells: E. coli SR481
Description: The balance of the #215 preculture (~750 μl) was used to inoculate 2 ml of MOPS medium containing 50 μg/ml carbenicillin and was shaken overnight at 37° C. to reach saturation. Plasmid DNA was isolated from an aliquot of the saturated culture using an alkaline lysis procedure. The plasmid was designated pMON8186. An aliquot of the pMON8186 plasmid was used to transform the E. coli host SR481 (described above) and reselected on MOPS medium containing 10 mM glyphosate and 50 μg/ml carbenicillin. A single glyphosate resistant colony of pMON8186 was picked off the selection plate and used to inoculate 3 ml of 2XYT bacterial medium containing 50 μg/ml carbenicillin. The culture was then aerated on rotating wheel at 37° C. until saturated, then it was used to inoculate a larger 500 ml culture. The large culture was grown to saturation by shaking it overnight at 37° C. in a water bath. The bacterial cells were lysed and the extracts were assayed for EPSPS activity.
Specifically, the bacterial cell paste was washed twice with 0.9% saline, suspended in buffer (100 mM Tris-HCl, 5 mM benzamidine HCl) and passed twice through the French Pressure Cell at 1000 psi. The cell extract was separated from the cells by centrifuging at 15,000 x gravity for 10 mins. at 5° C. It was desalted using Sephadex G-50 (Pharmacia, Piscataway, N.J.). The desalted extract was assayed for EPSP synthase activity as follows:
To an assay mix (40 μl) containing shikimate-3-phosphate (2 mM), ^14 C-phosphoenolpyruvate (1 mM, 1.2 mCi/mmol), ammonium molybdate (0.1 mM), potassium fluoride (5 mM) in 50 mM HEPES-KOH, pH 7, was added the extract and incubated at 25° C. for 2 mins. The reaction was quenched by the addition of 50 μl of 50 μl of 90% ethanol/0.1M acetic acid, pH 4.5. […] The radioactivity of the eluent was monitored using a Radiomatic Flo-One Beta Instrument. […] The EPSP synthase activity was determined by measurement of the conversion of ^14 C-PEP to ^14 C-EPSP synthase, both of which are resolved under the above conditions of chromatography. The protein content of the extract was determined by the method of Bradford (Biorad Labs, Calif.). The specific activity of the extract is expressed as nanomoles of EPSP synthase formed/min/mg protein.
Kinetic constants (appKm PEP and appKi glyphosate) were determined for EPSP synthase as described below. Substrate kinetic parameters were determined at pH 7.0 in 50 mM HEPES (N-[2-hydroxyethyl]piperazine-N'-[2-ethanesulfonic acid]) buffer in the presence of 2 mM S3P and varying amounts of ^14 C-PEP (10 μM-400 μM), for 2.0 minutes at 25° C. Reactions were quenched with 100 mM Na Acetate in ethanol, pH 4.5, centrifuged and analyzed for product EPSP formation by HPLC with flow radioactivity detection. […]

[2] = biological target: T2, petunia EPSP synthase glycine (101) to alanine variant (Petunia hybrida, UniProt P11043, G173A); assay: as above; assay type: biochemical
T2 construct: made in house; host or cells: E. coli
Description: To an assay mix (40 μl) containing shikimate-3-phosphate (2 mM), ^14 C-phosphoenolpyruvate (1 mM, 1.2 mCi/mmol), ammonium molybdate (0.1 mM), potassium fluoride (5 mM) in 50 mM HEPES-KOH, pH 7, was added the extract and incubated at 25° C. for 2 mins. The reaction was quenched by the addition of 50 μl of 50 μl of 90% ethanol/0.1M acetic acid, pH 4.5. 70 μl of the reaction mixture was loaded on a SynchroPak AX100 HPLC column (0.4×25 cm) and the column was eluted with 0.5M potassium phosphate, pH 5.5 at 1 ml/min. The radioactivity of the eluent was monitored using a Radiomatic Flo-One Beta Instrument. (Radiomatics, Fla.). The EPSP synthase activity was determined by measurement of the conversion of ^14 C-PEP to ^14 C-EPSP synthase, both of which are resolved under the above conditions of chromatography. The protein content of the extract was determined by the method of Bradford (Biorad Labs, Calif.). The specific activity of the extract is expressed as nanomoles of EPSP synthase formed/min/mg protein.
Kinetic constants (appKm PEP and appKi glyphosate) were determined for EPSP synthase as described below. Substrate kinetic parameters were determined at pH 7.0 in 50 mM HEPES (N-[2-hydroxyethyl]piperazine-N'-[2-ethanesulfonic acid]) buffer in the presence of 2 mM S3P and varying amounts of ^14 C-PEP (10 μM-400 μM), for 2.0 minutes at 25° C. Reactions were quenched with 100 mM Na Acetate in ethanol, pH 4.5, centrifuged and analyzed for product EPSP formation by HPLC with flow radioactivity detection. HPLC conditions were 0.35 MKPi, pH 6.5, on a Synchropak AX100 column at 1.0 ml/min.

[3] = test system: variant soybean EPSPS (gly 104 to ala, gly 147 to asp) from pMON9953; assay: Glyphosate tolerance of EPSP synthase extracted from bacteria; assay type: biochemical, Glycine max; details: enzyme extracted from E. coli SR481 with pMON9953
From the text: An E. coli expression vector for wild type soybean EPSPS was constructed by engineering an NcoI site at the predicted start of the mature soybean coding sequence by the method of Kunkel (1985). This sequence was then inserted into pMON9563, replacing the coding sequence for mature petunia EPSPS resulting in pMON9904.

[4] = test system: control petunia leaf disks (pMON505); assay: Leaf disk callus growth on glyphosate media; assay type: cell-based; details: within 10 days
Description: (§1) Leaf disks with diameters of 6 mm (1/4 inch) were taken from surface-sterilized petunia leaves. They were cultivated on MS104 agar medium for 2 days to promote partial cell wall formation at the wound surfaces. They were then submerged in a culture of A. tumefaciens cells containing both pMON546 and GV3111-SE which had been grown overnight in Luria broth at 28° C., and shaken gently. The cells were removed from the bacterial suspension, blotted dry, and incubated upside down on filter paper placed over "nurse" cultures of tobacco cells, as described by Horsch (1980). After 2 or 3 days, the disks were transferred to petri dishes containing MS media with 500 μg/ml carbenicillin and 0. 0.1, 0.25, or 0.5 mM glyphosate (sodium salt), with no nurse cultures.
(§2) Control tissue was created using A. tumefaciens cells containing the helper plasmid pGV3111-SE and a different plant transformation vector, pMON505, which contained a T-DNA region with a NOS/NPTII/NOS kanamycin resistance gene and a NOS selectable marker gene identical to pMON546, but without the CaMV35S/EPSP synthase gene.

[5] = test system: petunia leaf disks transformed with pMON546 (CaMV35S/EPSP synthase gene); assay: Leaf disk callus growth on glyphosate media; assay type: cell-based; details: within 10 days
Description: as §1, §2

MP4 cells = assay: Suspension culture of petunia cells in glyphosate medium; assay type: cell-based; details: MS media containing 0.5 mM glyphosate (sodium salt); estimated; read-out: cells which survived, of the starting population
Description: The starting cell line, designated as the MP4 line, was derived from a Mitchell diploid petunia (see e.g., Ausubel 1980). The MP4 cells were suspended in Murashige and Skoog (MS) culture media, (GIBCO, Grand Island, N.Y.) All transfers involved dispensing 10 ml of suspension cultures into 50 ml of fresh media. Cultivation periods until the next transfer ranged from 10 to 14 days, and were based on visual indications that the culture was approaching saturation.
Approximately 10 ml of saturated suspension culture (containing about 5×10^6 cells) were transferred into 50 ml of MS media containing 0.5 mM glyphosate. The sodium salt of glyphosate was used throughout the experiments described herein. The large majority of cells were unable to reproduce in the presence of the glyphosate. The cells which survived (estimated to be less than 1% of the starting population) were cultured in 0.5 mM glyphosate and transferred to fresh media containing glyphosate every 10 to 14 days.

[6] = biological target: wild type petunia EPSP synthase (Petunia hybrida, UniProt P11043); assay: EPSP synthase kinetic constants (appKi glyphosate, appKm PEP); assay type: biochemical
Description: The reaction was quenched by the addition of 50 μl of 50 μl of 90% ethanol/0.1M acetic acid, pH 4.5. 70 μl of the reaction mixture was loaded on a SynchroPak AX100 HPLC column (0.4×25 cm) and the column was eluted with 0.5M potassium phosphate, pH 5.5 at 1 ml/min. The radioactivity of the eluent was monitored using a Radiomatic Flo-One Beta Instrument. […] The protein content of the extract was determined by the method of Bradford (Biorad Labs, Calif.). The specific activity of the extract is expressed as nanomoles of EPSP synthase formed/min/mg protein.

[7] = 0.1 mM glyphosate (sodium salt)
[8] = 0.25 mM glyphosate (sodium salt)
[9] = 0.5 mM glyphosate (sodium salt)

T2 sequence (P11043 73-516 G173A): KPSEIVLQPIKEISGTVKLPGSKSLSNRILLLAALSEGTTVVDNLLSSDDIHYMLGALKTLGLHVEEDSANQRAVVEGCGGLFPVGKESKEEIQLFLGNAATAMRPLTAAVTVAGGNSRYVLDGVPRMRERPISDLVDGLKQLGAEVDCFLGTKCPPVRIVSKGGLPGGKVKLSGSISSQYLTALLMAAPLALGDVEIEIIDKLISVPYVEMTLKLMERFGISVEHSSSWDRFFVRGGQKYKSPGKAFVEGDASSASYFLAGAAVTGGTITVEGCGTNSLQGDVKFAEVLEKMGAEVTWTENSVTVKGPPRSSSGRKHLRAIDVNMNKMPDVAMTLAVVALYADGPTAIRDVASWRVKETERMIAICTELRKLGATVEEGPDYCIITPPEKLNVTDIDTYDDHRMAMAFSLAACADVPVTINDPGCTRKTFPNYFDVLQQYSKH
T1 sequence (P11043 73-516 G173A/G216D): as the sequence (P11043 73-516 G173A) above, with G144D counted along it
wild type petunia EPSP synthase, sequence (P11043 73-516): as the sequence (P11043 73-516 G173A) above, with A101G counted along it

`O=C(O)CNCP(=O)(O)O` [glyphosate, N-phosphonomethylglycine] gave a Ki for glyphosate [1] of 348 µM, a Ki/Km ratio ([1]; Ki glyphosate / Km PEP) of 7.7 and a Ki [2] of 2000 µM. For the same compound, the Ki/Km ratio ([2]; Ki glyphosate / Km PEP) was 10.0, the “glyphosate tolerance of extracted EPSP synthase” value [3] was “glyphosate tolerant” and the callus growth [4, 7] was “little detectable difference between the control disks and the transformed tissue”. The callus growth [4, 8] was “very little growth of callus”, the callus growth [4, 9] was “no callus growth” and the callus growth [5, 7] was “little detectable difference between the control disks and the transformed tissue”. For the same compound, the callus growth [5, 8] was “substantial growth of transformed tissue”, the callus growth [5, 9] was “a significant number of calli grew” and the viability at 500 µM (MP4 cells) was less than 1%. It also gave a Ki [6] of 0.4 µM.
